The results in this text go back to ChEMBL document CHEMBL1201862, “PubChem BioAssay data set” (2004).

Some test systems named below: 786-0; ACHN; EKVX; HCC 2998; HCT-116; HOP-92; Hs-578T; MCF7; NCI-H23; NCI-H460; OVCAR-8; PC-3; SF-268; SF-295; SK-MEL-28; SN12C; SNB-75; SR; TK-10; U-251.
What all share (assay): growth of human tumour cells (NCI), 48 h

The structures appear in SMILES notation.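 Each compound was tested at five concentrations against cells in 96-well plates for 48 hours. Abbreviation: GI50, concentration required for 50% inhibition of growth.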 Calls of active or inactive are those of the source. Cut-off read from the data, not from the text of the source: active = GI50 up to about 1.1 µM and inactive = higher.

For the molecule `c1ccc2cc(-c3cc(-c4cc(-c5ccc6ccccc6c5)on4)no3)ccc2c1`, the GI50 in the assay with 786-0 was > 100 µM (inactive); in the assay on ACHN, > 100 µM (inactive); in the assay on EKVX, 11.7 µM (inactive); in the assay with HCC 2998, 99.1 µM (inactive); in the assay on HCT-116, > 100 µM (inactive); in the assay on HOP-92, > 100 µM (inactive). In addition, the GI50 in the assay with Hs-578T is 53.6 µM (inactive); in the assay on MCF7 it was > 100 µM (inactive); in the assay with NCI-H23, > 100 µM (inactive); with NCI-H460 it was > 100 µM (inactive); with OVCAR-8 it was > 100 µM (inactive); in the assay on PC-3, > 100 µM (inactive). Further, the GI50 in the assay on SF-268 is > 100 µM (inactive); with SF-295 it was > 100 µM (inactive); in the assay on SK-MEL-28, > 100 µM (inactive); with SN12C it was > 100 µM (inactive); with SNB-75, 64.7 µM (inactive); in the assay with SR, 55.7 µM (inactive). Besides, the GI50 in the assay with TK-10 and in the assay on U-251 was > 100 µM (inactive) in each case.
For `COc1cc(C2c3cc4c(cc3OC(NCc3ccccc3)C2C)OCO4)cc(OC)c1OC` (stereo not given), the GI50 in the assay with 786-0 was 0.357 µM (active); in the assay on ACHN, 1.01 µM (active); in the assay with EKVX, 2.56 µM (inactive); in the assay with HCC 2998, 0.687 µM (active); in the assay on HCT-116 it was 0.364 µM (active); in the assay on HOP-92 it was 2 µM (inactive). Moreover, the GI50 in the assay on Hs-578T was 0.279 µM (active); in the assay on MCF7 it was 0.439 µM (active); with NCI-H23, 0.417 µM (active); in the assay with NCI-H460 it was 0.394 µM (active); in the assay with OVCAR-8, 0.482 µM (active); with PC-3 it was 0.24 µM (active). The GI50 in the assay on SF-268 is 0.933 µM (active); in the assay with SF-295, 0.219 µM (active); in the assay with SK-MEL-28, 4.04 µM (inactive); in the assay on SN12C, 0.697 µM (active); with SNB-75 it was 0.177 µM (active); with SR, 0.241 µM (active). The GI50 in the assay with TK-10 is 20.2 µM (inactive); with U-251, 0.39 µM (active).
As to `O=C(CN1CCCCC1)Nc1ccc2sc3ccccc3c(=O)c2n1`, the GI50 in the assay with 786-0 is 12.9 µM (inactive); in the assay on ACHN it was 14.2 µM (inactive); in the assay with EKVX, 22.7 µM (inactive); with HCC 2998, 14.8 µM (inactive); in the assay on HCT-116, 9.23 µM (inactive); in the assay with HOP-92 it was 15.1 µM (inactive). The GI50 with Hs-578T was 18.8 µM (inactive); in the assay on MCF7 it was 19.5 µM (inactive); in the assay with NCI-H23, 16.9 µM (inactive); in the assay with NCI-H460 it was 13.2 µM (inactive); in the assay with OVCAR-8, 13.7 µM (inactive); in the assay on PC-3, 10.9 µM (inactive). Further, the GI50 in the assay on SF-268 was 24.2 µM (inactive); with SF-295, 15 µM (inactive); with SK-MEL-28 it was 17.3 µM (inactive); in the assay on SN12C, 12.5 µM (inactive); with SNB-75, 15.2 µM (inactive); in the assay on SR, 21.5 µM (inactive). Besides, the values for the GI50 with TK-10 and in the assay on U-251 were 19.1 µM (inactive) and 16.6 µM (inactive), respectively.
For the molecule `Nc1ccc(S(=O)(=O)Nc2nc3ccccc3nc2N2CCCCCC2)cc1`, the GI50 was 30.2 µM (inactive) in the assay on 786-0; 35.9 µM (inactive) in the assay with ACHN; 40.3 µM (inactive) in the assay with EKVX; 16.6 µM (inactive) in the assay on HCC 2998; 16.6 µM (inactive) in the assay with HCT-116; 23.4 µM (inactive) with HOP-92. Further, the GI50 in the assay on Hs-578T was 37.2 µM (inactive); with MCF7, 38.9 µM (inactive); with NCI-H23, 9.06 µM (inactive); with NCI-H460, 23.4 µM (inactive); in the assay on OVCAR-8, 31.9 µM (inactive); in the assay on PC-3 it was 29.8 µM (inactive). The GI50 with SF-268 is 45.9 µM (inactive); in the assay with SF-295, 22.9 µM (inactive); in the assay on SK-MEL-28 it was 18.5 µM (inactive); with SN12C, 11 µM (inactive); in the assay on SNB-75, 50.8 µM (inactive); in the assay on SR, 12.5 µM (inactive). Besides, the GI50 in the assay on TK-10 is 31.8 µM (inactive); in the assay on U-251, 20.2 µM (inactive).
As for `CSC(=S)N/N=C(\C)c1cccc(C)n1`, the GI50 in the assay on 786-0 was 0.361 µM (active); in the assay on ACHN, 0.265 µM (active); in the assay with EKVX it was 1.16 µM (inactive); with HCC 2998 it was 3.17 µM (inactive); with HCT-116, 0.183 µM (active); in the assay with HOP-92 it was 1.1 µM (active). Further, the GI50 in the assay with Hs-578T is 6.14 µM (inactive); with MCF7 it was 0.128 µM (active); in the assay with NCI-H23 it was 0.975 µM (active); in the assay with NCI-H460 it was 0.456 µM (active); in the assay on OVCAR-8, 0.769 µM (active); with PC-3, 0.265 µM (active). Also, the GI50 was 0.708 µM (active) with SF-268; 1.49 µM (inactive) in the assay with SF-295; 1.46 µM (inactive) in the assay with SK-MEL-28; 1.28 µM (inactive) in the assay with SN12C; 1.86 µM (inactive) in the assay on SNB-75; 0.23 µM (active) in the assay with SR. Moreover, the GI50 in the assay on TK-10 is 0.975 µM (active); in the assay on U-251, 0.776 µM (active).
Consider `Cc1cn(C2CC(O)C(COC(=O)NCCC(F)(F)C(F)(F)C(F)(F)C(F)(F)F)O2)c(=O)[nH]c1=O` (stereo not given), for which the GI50 is > 100 µM (inactive) in the assay on 786-0; > 100 µM (inactive) in the assay with ACHN; > 100 µM (inactive) with EKVX; > 100 µM (inactive) with HCC 2998; 88.5 µM (inactive) in the assay on HCT-116; 54.6 µM (inactive) with HOP-92. Further, the GI50 in the assay with Hs-578T was 80.5 µM (inactive); in the assay with MCF7, > 100 µM (inactive); in the assay on NCI-H23, > 100 µM (inactive); in the assay with NCI-H460, > 100 µM (inactive); in the assay on OVCAR-8, > 100 µM (inactive); in the assay on PC-3 it was > 100 µM (inactive). Besides, the GI50 with SF-268 is > 100 µM (inactive); with SF-295, > 100 µM (inactive); with SK-MEL-28, > 100 µM (inactive); with SN12C it was > 100 µM (inactive); with SNB-75, 54.7 µM (inactive); in the assay with SR, > 100 µM (inactive). Besides, the GI50 in the assay with TK-10 and with U-251 was > 100 µM (inactive) throughout.
In the case of `C/C(=N\Nc1ccccc1)C(CN(C)C)C(c1ccccc1)c1c(O)c2ccccc2oc1=O` (stereo not given), the GI50 was > 100 µM (inactive) in the assay with 786-0; > 100 µM (inactive) in the assay with ACHN; > 100 µM (inactive) with EKVX; > 100 µM (inactive) with HCC 2998; > 100 µM (inactive) with HCT-116; > 35.2 µM (inactive) in the assay on HOP-92. The GI50 in the assay on Hs-578T, in the assay on MCF7, with NCI-H23, in the assay on NCI-H460, with OVCAR-8 and with PC-3 was > 100 µM (inactive) in each case. Moreover, the GI50 in the assay on SF-268 is > 100 µM (inactive); with SF-295, > 100 µM (inactive); in the assay with SK-MEL-28, > 100 µM (inactive); with SN12C, > 100 µM (inactive); in the assay on SNB-75, > 77.3 µM (inactive); in the assay with SR it was 85.9 µM (inactive). For the same molecule, the GI50 in the assay on TK-10 and in the assay on U-251 was > 100 µM (inactive) each time.
For the molecule `N#Cc1cnn2ccn(C3OC(COC(=O)c4ccccc4)C(OC(=O)c4ccccc4)C3OC(=O)c3ccccc3)c12` (stereo not given), the GI50 in the assay with 786-0 is > 21.5 µM (inactive); in the assay on ACHN, > 21.5 µM (inactive); in the assay on EKVX, > 21.5 µM (inactive); with HCC 2998 it was > 21.5 µM (inactive); with HCT-116, > 21.5 µM (inactive); with HOP-92, > 31.6 µM (inactive). Besides, the GI50 with Hs-578T is 13.2 µM (inactive); in the assay with MCF7, > 46.5 µM (inactive); in the assay with NCI-H23, > 21.5 µM (inactive); in the assay on NCI-H460 it was > 21.5 µM (inactive); in the assay with OVCAR-8, > 46.5 µM (inactive); in the assay on PC-3, 5.56 µM (inactive). Besides, the GI50 is > 21.5 µM (inactive) with SF-268; > 21.5 µM (inactive) with SF-295; > 21.5 µM (inactive) in the assay with SK-MEL-28; > 21.5 µM (inactive) with SN12C; 1 µM (active) in the assay with SNB-75; > 31.6 µM (inactive) in the assay on SR. The results for the GI50 in the assay on TK-10 and in the assay on U-251 were > 31.6 µM (inactive) and > 21.5 µM (inactive), respectively.
On to `Cc1nccn1S(=O)(=O)c1ccc(Cl)cc1`, for which the GI50 is > 100 µM (inactive) in the assay with 786-0; 95.9 µM (inactive) in the assay on ACHN; 31.3 µM (inactive) in the assay with EKVX; 29.2 µM (inactive) in the assay on HCC 2998; 30.5 µM (inactive) in the assay with HCT-116; 16.9 µM (inactive) in the assay with HOP-92. Besides, the GI50 is 44.9 µM (inactive) with Hs-578T; 45 µM (inactive) in the assay on MCF7; 39.6 µM (inactive) in the assay on NCI-H23; 41.9 µM (inactive) in the assay on NCI-H460; 59.2 µM (inactive) in the assay on OVCAR-8; 99.8 µM (inactive) in the assay on PC-3. The GI50 is 47.9 µM (inactive) with SF-268; 67.6 µM (inactive) in the assay with SF-295; 94 µM (inactive) in the assay with SK-MEL-28; 37.8 µM (inactive) in the assay with SN12C; 57 µM (inactive) with SNB-75; 38 µM (inactive) in the assay on SR. For the same molecule, the figures for the GI50 with TK-10 and in the assay on U-251 were 72.8 µM (inactive) and 61.1 µM (inactive), respectively.
Take `Brc1ccc2c(-c3csc(-c4c[nH]c5cc(Br)ccc45)n3)c[nH]c2c1`: the GI50 with 786-0 was 22 µM (inactive); in the assay with ACHN, 44 µM (inactive); in the assay with EKVX, 35.3 µM (inactive); in the assay with HCC 2998, 43.8 µM (inactive); in the assay on HCT-116, 14.5 µM (inactive); in the assay with HOP-92, 31.1 µM (inactive). Besides, the GI50 in the assay on Hs-578T is 23 µM (inactive); in the assay on MCF7 it was 11.8 µM (inactive); with NCI-H23, 18.5 µM (inactive); with NCI-H460, 18.9 µM (inactive); with OVCAR-8, 21 µM (inactive); in the assay on PC-3, 23.7 µM (inactive). The GI50 with SF-268 is 31.2 µM (inactive); in the assay with SF-295, 9.31 µM (inactive); with SK-MEL-28, 46.6 µM (inactive); in the assay with SN12C, 37 µM (inactive); in the assay on SNB-75 it was 25.1 µM (inactive); with SR, 5.61 µM (inactive). Besides, the GI50 with TK-10 was 30.8 µM (inactive); with U-251, 15.8 µM (inactive).
